Results from ChEMBL document CHEMBL1142978, “Probing the anticancer activity of nucleoside analogues: a QSAR model approach using an internally consistent training set” (J Med Chem, 2007).

Test: Cytotoxicity against mouse L1210/0 cells after 48 hrs
Format: cell-based
Details: Mus musculus, L1210/0, 48 h

`O=c1ccn([C@@H]2CCC[C@H]2CO)c(=O)[nH]1` and `OC[C@H]1CCC[C@@H]1n1cnc2c(Cl)ncnc21` cannot be ordered by IC50: > 200 µM for the first, > 200 µM for the second.

Compared with `Nc1ncnc2c1ncn2[C@@H]1O[C@H](C=O)C(O)C1O` (single isomer, unassigned), `Nc1ncnc2c1ncn2[C@@H]1O[C@H](/C=C/F)[C@H](O)[C@@H]1O` is higher in IC50: 36.6 µM for the first, > 200 µM for the second.

Compared with `CC(=O)OCCOCn1cnc2c(=S)[nH]c(N)nc21`, `CC(=O)OCCOCn1cnc2c(Cl)nc(N)nc21` is higher in IC50: 3.2 µM for the first, > 200 µM for the second.

Going from `CCCc1cn([C@H]2C[C@H](O)[C@@H](CO)O2)c(=O)[nH]c1=O` to `CCc1cn([C@H]2C[C@H](O)[C@@H](CO)O2)c(=O)[nH]c1=O` [EDOXUDINE], the IC50 falls from > 200 µM to 33.2 µM. The second is the more potent here.

`Nc1nc(Cl)c2ncn([C@H]3CCCC[C@H]3CO)c2n1` and `Nc1nc(N)c2ncn([C@H]3CCCC[C@H]3CO)c2n1` cannot be ordered by IC50: > 200 µM for the first, > 200 µM for the second.

First: CC(C)(C)C#Cc1cn([C@@H]2O[C@H](CO)[C@@H](O)[C@@H]2O)c(=O)[nH]c1=O
Second: Cc1cn([C@@H]2O[C@H](CO)[C@@H](O)[C@@H]2O)c(=O)[nH]c1=O
The IC50 of the first is higher: > 200 µM for the first, 24.4 µM for the second. The second is the more potent here.

`Nc1nc2c(nc(Br)n2COCCO)c(=O)[nH]1` and `CNc1nc2c(=O)[nH]c(N)nc2n1COCCO` cannot be ordered by IC50: > 200 µM for the first, > 200 µM for the second.

First: OC[C@H]1C[C@@H](Cn2cnc3c(-c4ccccc4)ncnc32)c2ccccc21
Second: OC[C@H]1C[C@@H](Cn2cnc3c(-c4ccc(Cl)cc4)ncnc32)c2ccccc21
The IC50 of the first is 3.3-fold higher: 28.1 µM for the first, 8.44 µM for the second.

`Nc1nc(N)c2nnn([C@H]3CCCC[C@H]3CO)c2n1` and `CC1(C)[C@@H](CCCO)C[C@H]1n1nnc2c(N)nc(N)nc21` cannot be ordered by IC50: > 200 µM for the first, > 200 µM for the second.

`CC(O)Cn1cnc2c(N)nc(I)nc21` (stereo not drawn) and `Nc1nc(I)nc2c1ncn2COCCO` cannot be ordered by IC50: > 200 µM for the first, > 200 µM for the second.

`O=C1O/C(=C\Cn2cc(I)c(=O)[nH]c2=O)C(OCc2ccccc2)=C1OCc1ccccc1` and `O=C1O/C(=C\Cn2cc(Br)c(=O)[nH]c2=O)C(OCc2ccccc2)=C1OCc1ccccc1` are the same in IC50: 7.5 µM for the first, 7.5 µM for the second.

First: Cc1ccc(C(=O)/C=C/c2cc(O)nc(O)n2)cc1
Second: Cc1ccc(C(=O)/C=C/c2cc(=O)[nH]c(=O)n2COCCO)cc1
The IC50 of the first is 6.5-fold higher: 182 µM for the first, 27.9 µM for the second.

`CC1(C)C(CO)CC1Cn1nnc2c(Cl)nc(N)nc21` (stereo not drawn) and `CC1(C)C(CO)CC1Cn1nnc2c(=O)[nH]c(N)nc21` (stereo not drawn) cannot be ordered by IC50: > 200 µM for the first, > 200 µM for the second.

`COc1c(C)c(-c2cn([C@H]3C[C@H](O)[C@@H](CO)O3)c(=O)[nH]c2=O)c(OC)c2ccccc12` and `COc1cc(-c2cn([C@H]3C[C@H](O)[C@@H](CO)O3)c(=O)[nH]c2=O)c(OC)c(C)c1C` cannot be ordered by IC50: > 200 µM for the first, > 200 µM for the second.

`Nc1nc(=O)n(COCCO)cc1[N+](=O)[O-]` and `O=c1[nH]c(=O)n(COCCO)cc1[N+](=O)[O-]` cannot be ordered by IC50: > 200 µM for the first, > 200 µM for the second.

Going from `O=c1[nH]c(=O)n([C@H]2C[C@H](O)[C@@H](CO)O2)cc1/C=C/Cl` to `O=c1[nH]c(=O)n([C@H]2C[C@H](O)[C@@H](CO)O2)cc1/C=C/I`, the IC50 falls from > 200 µM to 63.9 µM. The second is the more potent here.

Compared with `Nc1ncnc2c1ncn2[C@H]1C[C@@H](O)[C@@H](C=O)O1`, `Nc1ncnc2c1ncn2[C@@H]1O[C@H](/C=C\Cl)[C@H](O)[C@@H]1O` is 5.4-fold higher in IC50: 26.6 µM for the first, 143 µM for the second. The first is the more potent here.

`N#Cc1cn([C@H]2C[C@H](O)[C@@H](CO)O2)c(=O)[nH]c1=O` and `C=CC#Cc1cn([C@H]2C[C@H](O)[C@@H](CO)O2)c(=O)[nH]c1=O` cannot be ordered by IC50: > 200 µM for the first, > 200 µM for the second.

Going from `COC1=C(OC)/C(=C/Cn2cnc3c(Cl)ncnc32)OC1=O` to `COC1=C(OC)C(=CCn2cnc3c(N)ncnc32)OC1=O`, the IC50 rises from 14 µM to > 200 µM. The first is the more potent here.

Compared with `O=c1[nH]c(=O)n([C@H]2C[C@H](O)[C@@H](CO)O2)cc1Br` [BROXURIDINE], `O=c1[nH]c(=O)n([C@H]2C[C@H](O)[C@@H](CO)O2)cc1I` [IDOXURIDINE] is 2-fold higher in IC50: 84.7 µM for the first, 173 µM for the second.

`COc1ncnc2c1ncn2C[C@@H]1C[C@H](O)c2ccccc21` and `Oc1ncnc2c1ncn2C[C@@H]1C[C@H](O)c2ccccc21` cannot be ordered by IC50: > 200 µM for the first, > 200 µM for the second.

First: CCCCC#Cc1cn([C@H]2C[C@H](O)[C@@H](CO)O2)c(=O)[nH]c1=O
Second: O=c1[nH]c(=O)n([C@H]2C[C@H](O)[C@@H](CO)O2)cc1CO
The IC50 of the first is higher: > 200 µM for the first, 9.18 µM for the second. The second is the more potent here.

`Nc1ccn(COCCO)c(=O)n1` and `O=C1C=CN(COCCO)C(=O)C1` cannot be ordered by IC50: > 200 µM for the first, > 200 µM for the second.

`O=C1OC(C(O)Cn2cc(F)c(=O)[nH]c2=O)C(OCc2ccccc2)=C1OCc1ccccc1` (stereo not drawn) and `O=C1OC(C(O)Cn2ccc(=O)[nH]c2=O)C(OCc2ccccc2)=C1OCc1ccccc1` (stereo not drawn) are within 1.5-fold of each other in IC50: 140 µM for the first, 157 µM for the second.

First: Cc1ccc(S(=O)(=O)/C=C/[C@H]2O[C@@H](n3cnc4c(N)ncnc43)[C@@H](O)[C@H]2O)cc1
Second: C=C(Br)[C@H]1O[C@@H](n2cnc3c(N)ncnc32)[C@@H](O)[C@H]1O
The IC50 of the first is 2.2-fold higher: 54 µM for the first, 25 µM for the second. The second is the more potent here.

`C[C@H](O)C1CC(Cn2nnc3c(=O)[nH]cnc32)C1(C)C` (stereo partly drawn) and `C[C@H](O)C1CC(Cn2cnc3c(=O)[nH]cnc32)C1(C)C` (stereo partly drawn) cannot be ordered by IC50: > 200 µM for the first, > 200 µM for the second.

First: O=c1[nH]c(=O)n(C[C@@H]2C[C@H](O)c3ccccc32)cc1Br
Second: C=C(Cl)c1cn([C@H]2C[C@H](O)[C@@H](CO)O2)c(=O)[nH]c1=O
The IC50 of the first is higher: > 200 µM for the first, 1.66 µM for the second.

Going from `OC[C@@H]1C[C@H](Cn2cnc3c(NC4CCC4)ncnc32)c2c(-c3ccccc3)nnc(-c3ccccc3)c21` to `OC[C@@H]1CCC[C@@H]1Cn1cnc2c(Cl)ncnc21`, the IC50 falls from 90.8 µM to 52.5 µM (1.7-fold). The second is the more potent here.

`Cc1ccc(S(=O)(=O)OCCC#Cc2cn([C@H]3C[C@H](O)[C@@H](CO)O3)c(=O)[nH]c2=O)cc1` and `C#COc1cn([C@H]2C[C@H](O)[C@@H](CO)O2)c(=O)[nH]c1=O` cannot be ordered by IC50: > 200 µM for the first, > 200 µM for the second.

`CC1(C)[C@@H](CO)CC[C@@]1(C)Cn1ccc(=O)[nH]c1=O` and `CC1(C)[C@@H](CO)CC[C@@]1(C)Cn1nnc2c(N)ncnc21` cannot be ordered by IC50: > 200 µM for the first, > 200 µM for the second.

`O=c1[nH]cnc2c1ncn2CC1CCC(CO)C1` (stereo not drawn) and `CC1(C)C(CO)CC1Cn1cnc2c(Cl)nc(N)nc21` (stereo not drawn) cannot be ordered by IC50: > 200 µM for the first, > 200 µM for the second.

`Nc1ncnc2c1nnn2C1C[C@H](CO)[C@@H](CO)[C@@H]1CO` (stereo partly drawn) and `O=c1[nH]cnc2c1nnn2C1C[C@H](CO)[C@@H](CO)[C@@H]1CO` (stereo partly drawn) cannot be ordered by IC50: > 200 µM for the first, > 200 µM for the second.

`COC1=C(OC)/C(=C/C(n2cnc3c(N)ncnc32)P(O)(=S)OC)OC1=O` (stereo not drawn) and `CO/N=C/C1CC(n2cnc3c(N)ncnc32)C(O)C1O` (stereo not drawn) cannot be ordered by IC50: > 200 µM for the first, > 200 µM for the second.

`CC(C)Nc1ncnc2c1ncn2C1C[C@@H](CO)[C@@H](CO)C1` (stereo partly drawn) and `OC[C@@H]1CC(n2cnc3c(NC4CC4)ncnc32)C[C@@H]1CO` (stereo partly drawn) cannot be ordered by IC50: > 200 µM for the first, > 200 µM for the second.

First: Nc1nc(NC2CC2)c2ncn(CCOCP(=O)(O)O)c2n1
Second: CC(=O)OCCOCn1cnc2c(S)nc(F)nc21
The IC50 of the first is 3.9-fold lower: 10.2 µM for the first, 40 µM for the second. The first is the more potent here.

Going from `O=C1O/C(=C\Cn2ccc(=O)[nH]c2=O)C(O)=C1O` to `O=Cc1cn([C@H]2C[C@H](O)[C@@H](CO)O2)c(=O)[nH]c1=O`, the IC50 falls from > 200 µM to 1.07 µM.

Going from `CO[C@@H]1OC(n2cc(F)c(=O)[nH]c2=O)[C@H](OC(C)=O)[C@@H](OC(C)=O)[C@H]1F` (stereo partly drawn) to `CC1NC(=O)C(F)=CN1[C@@H]1O[C@H](COP2OCCCO2)[C@@H](O)C1=O` (stereo partly drawn), the IC50 falls from 34 µM to 0.75 µM (45-fold). The second is the more potent here.

`CN(C)c1ncnc2c1ncn2COCCO` and `C[C@H](O)C1CC(Cn2nnc3c(N)ncnc32)C1(C)C` (stereo partly drawn) cannot be ordered by IC50: > 200 µM for the first, > 200 µM for the second.

For `CC1(C)[C@@H](Cn2nnc3c(Cl)nc(N)nc32)CC[C@@]1(C)CO`, the IC50 was 44.6 µM.

Same assay, conditions: l1210/0

`Nc1ncnc2c1ncn2[C@@H]1O[C@H](/C=N/O)[C@@H](O)[C@H]1O` (stereo in doubt; 75) showed an IC50 of 6.47 µM.
